Results reported in patent US20250312258A1, “2,3-PYRROLIDINEDIONE CONJUGATES AND METHODS OF USING THEREOF” (North Carolina State University, priority 2022, published 2025).
Converted amounts (≈) assume the structure as drawn. Where two headings read alike, the source gives them in different places.

Experiments:
Assay type in all cases: cell-based
MSSA = experiment: MIC against MSSA strain panel; details: Staphylococcus aureus, the 4th table, read-out: MIC
ATCC 29212 E. faecalis = experiment: MIC against ATCC 29212 E. faecalis; details: Enterococcus faecalis, ATCC29212, ATCC 29212 E. faecalis, read-out: MIC
S. pneumoniae = experiment: MIC against S. pneumoniae strain panel; details: Streptococcus pneumoniae, read-out: MIC
Group A Strep = experiment: MIC against Group A Strep strain panel; details: read-out: MIC
Group B Strep = experiment: MIC against Group B Strep strain panel; details: read-out: MIC
E. coli = experiment: MIC against E. coli strains; details: the 4th table

`CCC1C(c2ccc(C(F)(F)F)cc2)=C(O)C(=O)N1C1CCC(NC)CC1` (stereo not shown) [Compound 4] showed an MIC (MSSA; VGP16-98 MSSA) of 1 µg/mL (≈ 2.61 µM), an MIC (MSSA; VGP16-99 MSSA) of 1 µg/mL (≈ 2.61 µM) and an MIC (MSSA; VGP16-100 MSSA) of 1 µg/mL (≈ 2.61 µM). It also gave an MIC (MSSA; VGP16-101 MSSA) of 1 µg/mL (≈ 2.61 µM), an MIC (MSSA; VGP16-116 MSSA) of 1 µg/mL (≈ 2.61 µM) and an MIC (MSSA; VGP16-117 MSSA) of 1 µg/mL (≈ 2.61 µM). For the same compound, the MIC (ATCC 29212 E. faecalis; the 4th table) was 2 µg/mL (≈ 5.23 µM), the MIC (ATCC 29212 E. faecalis; the 6th table) was 2 µg/mL (≈ 5.23 µM) and the MIC (S. pneumoniae; ATCC49619, ATCC 49619 S. pneumoniae, CA-MHB w/5% LHB, the 4th table) was 0.25 µg/mL (≈ 0.654 µM). For the same compound, the MIC (S. pneumoniae; ATCC49619, ATCC 49619 S. pneumoniae, the 7th table) was 0.5 µg/mL (≈ 1.31 µM), the MIC (S. pneumoniae; CO314937 S. pneumoniae, CA-MHB w/5% LHB, the 4th table) was 0.5 µg/mL (≈ 1.31 µM) and the MIC (S. pneumoniae; CT3-5008 S. pneumoniae, the 7th table) was 0.5 µg/mL (≈ 1.31 µM). The MIC (S. pneumoniae; CT3-5803 S. pneumoniae, the 7th table) was 0.5 µg/mL (≈ 1.31 µM), the MIC (S. pneumoniae; CT3-8501 S. pneumoniae, the 7th table) was 0.5 µg/mL (≈ 1.31 µM) and the MIC (S. pneumoniae; CT4-3048 S. pneumoniae, the 7th table) was 0.5 µg/mL (≈ 1.31 µM). It also gave an MIC (S. pneumoniae; CT4-9046 S. pneumoniae, the 7th table) of 0.25 µg/mL (≈ 0.654 µM), an MIC (S. pneumoniae; CT4-9693 S. pneumoniae, the 7th table) of 0.5 µg/mL (≈ 1.31 µM) and an MIC (S. pneumoniae; CT5-6541 S. pneumoniae, the 7th table) of 0.5 µg/mL (≈ 1.31 µM). It also gave an MIC (S. pneumoniae; CT5-8032 S. pneumoniae, the 7th table) of 0.5 µg/mL (≈ 1.31 µM), an MIC (S. pneumoniae; CT5-9124 S. pneumoniae, the 7th table) of 0.25 µg/mL (≈ 0.654 µM) and an MIC (S. pneumoniae; CT6-0670 S. pneumoniae, the 7th table) of 0.5 µg/mL (≈ 1.31 µM). The MIC (S. pneumoniae; CT6-7691 S. pneumoniae, the 7th table) was 0.5 µg/mL (≈ 1.31 µM), the MIC (S. pneumoniae; CT0200-2241 S. pneumoniae, the 7th table) was 0.5 µg/mL (≈ 1.31 µM) and the MIC (S. pneumoniae; CT0200-2730 S. pneumoniae, the 7th table) was 0.5 µg/mL (≈ 1.31 µM). For the same compound, the MIC (S. pneumoniae; MD77773 S. pneumoniae, CA-MHB w/5% LHB, the 4th table) was 0.5 µg/mL (≈ 1.31 µM), the MIC (Group A Strep; 2007-11 Group A Strep, the 8th table) was 0.5 µg/mL (≈ 1.31 µM) and the MIC (Group A Strep; 2007-28 Group A Strep, the 8th table) was 0.5 µg/mL (≈ 1.31 µM). For the same compound, the MIC (Group A Strep; 2007-49 Group A Strep, the 8th table) was 0.5 µg/mL (≈ 1.31 µM), the MIC (Group A Strep; 2007-73 Group A Strep, the 8th table) was 0.5 µg/mL (≈ 1.31 µM) and the MIC (Group A Strep; 2007-107 Group A Strep, the 8th table) was 0.5 µg/mL (≈ 1.31 µM). The MIC (Group A Strep; 2007-1101 Group A Strep, the 8th table) was 0.5 µg/mL (≈ 1.31 µM), the MIC (Group A Strep; 2008-06 Group A Strep, the 8th table) was 0.5 µg/mL (≈ 1.31 µM) and the MIC (Group A Strep; 2008-45 Group A Strep, the 8th table) was 0.5 µg/mL (≈ 1.31 µM). It also gave an MIC (Group A Strep; 2008-818 Group A Strep, CA-MHB w/5% LHB, the 4th table) of 0.25 µg/mL (≈ 0.654 µM), an MIC (Group A Strep; 2008-1565 Group A Strep, the 8th table) of 0.5 µg/mL (≈ 1.31 µM) and an MIC (Group A Strep; 2008-1692 Group A Strep, the 8th table) of 0.5 µg/mL (≈ 1.31 µM). For the same compound, the MIC (Group A Strep; 2008-1732 Group A Strep, CA-MHB w/5% LHB, the 4th table) was 0.25 µg/mL (≈ 0.654 µM), the MIC (Group A Strep; 2009-8 Group A Strep, the 8th table) was 0.5 µg/mL (≈ 1.31 µM) and the MIC (Group A Strep; 2009-37 Group A Strep, CA-MHB w/5% LHB, the 4th table) was 0.5 µg/mL (≈ 1.31 µM). It also gave an MIC (Group A Strep; 2009-106 Group A Strep, the 8th table) of 0.5 µg/mL (≈ 1.31 µM), an MIC (Group A Strep; 2009-109 Group A Strep, the 8th table) of 0.5 µg/mL (≈ 1.31 µM) and an MIC (Group A Strep; 2009-114 Group A Strep, the 8th table) of 0.5 µg/mL (≈ 1.31 µM). The MIC (Group A Strep; 2009-136 Group A Strep, the 8th table) was 0.5 µg/mL (≈ 1.31 µM), the MIC (Group B Strep; 2008-57 Group B Strep, the 9th table) was 0.5 µg/mL (≈ 1.31 µM) and the MIC (Group B Strep; 2008-70 Group B Strep, the 9th table) was 0.5 µg/mL (≈ 1.31 µM). It also gave an MIC (Group B Strep; 2008-87 Group B Strep, CA-MHB w/5% LHB, the 4th table) of 0.5 µg/mL (≈ 1.31 µM), an MIC (Group B Strep; 2008-115 Group B Strep, the 9th table) of 0.5 µg/mL (≈ 1.31 µM) and an MIC (Group B Strep; 2009-20 Group B Strep, the 9th table) of 0.5 µg/mL (≈ 1.31 µM). The MIC (Group B Strep; 2009-40 Group B Strep, the 9th table) was 0.5 µg/mL (≈ 1.31 µM), the MIC (Group B Strep; 2009-43 Group B Strep, the 9th table) was 0.5 µg/mL (≈ 1.31 µM) and the MIC (Group B Strep; 2009-51 Group B Strep, the 9th table) was 0.5 µg/mL (≈ 1.31 µM). For the same compound, the MIC (Group B Strep; 2009-57 Group B Strep, the 9th table) was 0.5 µg/mL (≈ 1.31 µM), the MIC (Group B Strep; 2009-59 Group B Strep, the 9th table) was 0.5 µg/mL (≈ 1.31 µM) and the MIC (Group B Strep; 2009-60 Group B Strep, the 9th table) was 0.5 µg/mL (≈ 1.31 µM). It also gave an MIC (Group B Strep; 2009-61 Group B Strep, CA-MHB w/5% LHB, the 4th table) of 0.5 µg/mL (≈ 1.31 µM), an MIC (Group B Strep; 2009-62 Group B Strep, CA-MHB w/5% LHB, the 4th table) of 0.25 µg/mL (≈ 0.654 µM) and an MIC (Group B Strep; J4182 Group B Strep, the 9th table) of 0.5 µg/mL (≈ 1.31 µM). For the same compound, the MIC (Group B Strep; J4183 Group B Strep, the 9th table) was 0.5 µg/mL (≈ 1.31 µM), the MIC (Group B Strep; J4185 Group B Strep, the 9th table) was 0.5 µg/mL (≈ 1.31 µM) and the MIC (Group B Strep; J4186 Group B Strep, the 9th table) was 0.5 µg/mL (≈ 1.31 µM). For the same compound, the MIC (Group B Strep; J4222 Group B Strep, the 9th table) was 0.5 µg/mL (≈ 1.31 µM), the MIC (E. coli; AR-137 E. coli) was over 64 µg/mL and the MIC (E. coli; Escherichia coli, ATCC25922, ATCC 25922 E. coli, read-out: MIC) was over 64 µg/mL. For the same compound, the MIC (E. coli; Escherichia coli, AR-451 E. coli, read-out: MIC) was over 64 µg/mL.
